# From PMC5218480 (PLoS ONE, 2017)
# Test system: MV-4-11 cells
# Experiment: Gene expression microarray analysis (Affymetrix PrimeView) and GSEA
# Format: cell-based, human
# Set-up: RFU PODN (11730768_x_at) / Fold change /veh PODN (11730768_x_at) / RFU LINC00158 (11744669_a_at) / Fold change /veh LINC00158 (11744669_a_at) / RFU DUSP10 (11751237_a_at) / Fold change /veh DUSP10 (11751237_a_at) / RFU ID3 (11757404_x_at) / Fold change /veh ID3 (11757404_x_at) / RFU PLEKHG5 (11737974_s_at) / Fold change /veh PLEKHG5 (11737974_s_at) / RFU LRRC4B (11730491_at) / Fold change /veh LRRC4B (11730491_at) / RFU GIMAP4 (11747438_a_at) / Fold change /veh GIMAP4 (11747438_a_at) / RFU KRT8 (11758183_x_at) / Fold change /veh KRT8 (11758183_x_at) / RFU CNN1 (11734310_a_at) / Fold change /veh CNN1 (11734310_a_at) / RFU VPS37D (11726825_at) / Fold change /veh VPS37D (11726825_at) / RFU C10orf10 (11716522_x_at) / Fold change /veh C10orf10 (11716522_x_at) / RFU KIR2DL2 /// KIR2DL4 /// KIR2DL5A /// KIR2DL5B /// KIR2DS1 /// KIR2DS2 /// KIR2DS3 /// KIR2DS4 /// KIR3DL3 /// KIR3DL3 /// KIR3DS1 (11738374_at) / Fold change /veh KIR2DL2 /// KIR2DL4 /// KIR2DL5A /// KIR2DL5B /// KIR2DS1 /// KIR2DS2 /// KIR2DS3 /// KIR2DS4 /// KIR3DL3 /// KIR3DL3 /// KIR3DS1 (11738374_at) / RFU C1QL1 (11718748_at) / Fold change /veh C1QL1 (11718748_at) / RFU TMPRSS4 (11747572_a_at) / Fold change /veh TMPRSS4 (11747572_a_at) / RFU HAMP (11756126_x_at) / Fold change /veh HAMP (11756126_x_at) / RFU RNFT2 (11725882_a_at) / Fold change /veh RNFT2 (11725882_a_at) / RFU NR4A2 (11747474_a_at) / Fold change /veh NR4A2 (11747474_a_at) / RFU ABCC12 (11746883_a_at) / Fold change /veh ABCC12 (11746883_a_at) / RFU TMEM136 (11760407_x_at) / Fold change /veh TMEM136 (11760407_x_at) / RFU CLDN22 /// WWC2 (11732394_at) / Fold change /veh CLDN22 /// WWC2 (11732394_at) / RFU HLA-DPB1 (11760878_x_at) / Fold change /veh HLA-DPB1 (11760878_x_at) / RFU SPINT1 (11716480_a_at) / Fold change /veh SPINT1 (11716480_a_at) / RFU GAP43 (11754022_s_at) / Fold change /veh GAP43 (11754022_s_at) / RFU A4GNT (11735810_at) / Fold change /veh A4GNT (11735810_at) / RFU PRB3 (11715151_x_at) / Fold change /veh PRB3 (11715151_x_at) / RFU TUBB4B (11761932_at) / Fold change /veh TUBB4B (11761932_at) / RFU CAPN14 (11732068_a_at) / Fold change /veh CAPN14 (11732068_a_at) / RFU TMCC2 (11721928_a_at) / Fold change /veh TMCC2 (11721928_a_at) / RFU IRGQ (11745062_a_at) / Fold change /veh IRGQ (11745062_a_at) / RFU FAM174B (11720279_a_at) / Fold change /veh FAM174B (11720279_a_at) / RFU TMPRSS4 (11748680_a_at) / Fold change /veh TMPRSS4 (11748680_a_at) / RFU FAM212B (11763350_a_at) / Fold change /veh FAM212B (11763350_a_at) / RFU PLEKHG5 (11743358_a_at) / Fold change /veh PLEKHG5 (11743358_a_at) / RFU ZSCAN30 (11745921_a_at) / Fold change /veh ZSCAN30 (11745921_a_at) / RFU CMKLR1 (11741424_a_at) / Fold change /veh CMKLR1 (11741424_a_at) / RFU LOC101060620 /// MAPK8IP1 (11723275_at) / Fold change /veh LOC101060620 /// MAPK8IP1 (11723275_at) / RFU SPTSSB (11747773_x_at) / Fold change /veh SPTSSB (11747773_x_at) / RFU PRSS12 (11739890_at) / Fold change /veh PRSS12 (11739890_at) / RFU BIN1 (11741810_x_at) / Fold change /veh BIN1 (11741810_x_at) / RFU WNT11 (11732464_a_at) / Fold change /veh WNT11 (11732464_a_at) / RFU C10orf10 (11716521_a_at) / Fold change /veh C10orf10 (11716521_a_at) / RFU C5orf56 (11738089_at) / Fold change /veh C5orf56 (11738089_at) / RFU CYB561 (11721691_x_at) / Fold change /veh CYB561 (11721691_x_at) / RFU ANKRD19P (11752326_a_at) / Fold change /veh ANKRD19P (11752326_a_at) / RFU OR2T12 /// OR2T33 /// OR2T8 (11738714_s_at) / Fold change /veh OR2T12 /// OR2T33 /// OR2T8 (11738714_s_at) / RFU VCAN (11748164_a_at) / Fold change /veh VCAN (11748164_a_at) / RFU JSRP1 (11732532_at) / Fold change /veh JSRP1 (11732532_at) / RFU KRTAP10-11 (11738290_x_at) / Fold change /veh KRTAP10-11 (11738290_x_at) / RFU MYO3A (11730013_a_at) / Fold change /veh MYO3A (11730013_a_at) / RFU EBF3 (11725865_a_at) / Fold change /veh EBF3 (11725865_a_at) / RFU CAMK2N1 (11719241_x_at) / Fold change /veh CAMK2N1 (11719241_x_at) / RFU C5orf56 (11738088_a_at) / Fold change /veh C5orf56 (11738088_a_at) / RFU OLFML3 (11715873_a_at) / Fold change /veh OLFML3 (11715873_a_at) / RFU LOC100653217 /// NTM (11731650_a_at) / Fold change /veh LOC100653217 /// NTM (11731650_a_at) / RFU MAPK11 (11762145_a_at) / Fold change /veh MAPK11 (11762145_a_at) / RFU FIZ1 (11724087_x_at) / Fold change /veh FIZ1 (11724087_x_at) / RFU OASL (11726364_x_at) / Fold change /veh OASL (11726364_x_at) / RFU SOX15 (11748057_x_at) / Fold change /veh SOX15 (11748057_x_at) / RFU CD79A (11719716_a_at) / Fold change /veh CD79A (11719716_a_at) / RFU HIST1H1D (11736915_at) / Fold change /veh HIST1H1D (11736915_at) / RFU CASKIN2 (11723855_a_at) / Fold change /veh CASKIN2 (11723855_a_at) / RFU LOC730098 (11760151_x_at) / Fold change /veh LOC730098 (11760151_x_at) / RFU OR4N2 (11742367_at) / Fold change /veh OR4N2 (11742367_at) / RFU PRRT2 (11749266_a_at) / Fold change /veh PRRT2 (11749266_a_at) / RFU SNX32 (11753110_a_at) / Fold change /veh SNX32 (11753110_a_at) / RFU CDHR5 (11726645_a_at) / Fold change /veh CDHR5 (11726645_a_at) / RFU RCAN1 (11760418_a_at) / Fold change /veh RCAN1 (11760418_a_at) / RFU FAM167A (11723789_a_at) / Fold change /veh FAM167A (11723789_a_at) / RFU FAM26E (11764081_at) / Fold change /veh FAM26E (11764081_at) / RFU ISYNA1 (11749810_s_at) / Fold change /veh ISYNA1 (11749810_s_at) / RFU ACY1 (11761880_at) / Fold change /veh ACY1 (11761880_at) / RFU 11764098_at / Fold change /veh 11764098_at / RFU SAMD14 (11745864_x_at) / Fold change /veh SAMD14 (11745864_x_at) / RFU NPB (11741838_a_at) / Fold change /veh NPB (11741838_a_at) / RFU TMPRSS6 (11731388_a_at) / Fold change /veh TMPRSS6 (11731388_a_at) / RFU KRTAP10-2 (11738614_at) / Fold change /veh KRTAP10-2 (11738614_at) / RFU ARHGAP8 /// PRR5-ARHGAP8 (11727945_x_at) / Fold change /veh ARHGAP8 /// PRR5-ARHGAP8 (11727945_x_at) / RFU KRTAP5-7 /// NADSYN1 (11734609_at) / Fold change /veh KRTAP5-7 /// NADSYN1 (11734609_at) / RFU RASL12 (11751679_a_at) / Fold change /veh RASL12 (11751679_a_at) / RFU CDKN2B (11736163_a_at) / Fold change /veh CDKN2B (11736163_a_at) / RFU PRF1 (11729649_at) / Fold change /veh PRF1 (11729649_at) / RFU, ZNF638 /// ZNF638-IT1 / Fold change vs veh, ZNF638 /// ZNF638-IT1 / RFU, PANK3 / Fold change vs veh, PANK3 / RFU, SH3YL1 / Fold change vs veh, SH3YL1 / RFU, ZEB2 / Fold change vs veh, ZEB2 / RFU, NRIP1 / Fold change vs veh, NRIP1 / RFU, PTTG1IP / Fold change vs veh, PTTG1IP / RFU, CAPN2 / Fold change vs veh, CAPN2 / RFU, MED14 / Fold change vs veh, MED14 / RFU, SNORA58 / Fold change vs veh, SNORA58 / RFU, C1orf63 / Fold change vs veh, C1orf63 / RFU, LRRFIP1 / Fold change vs veh, LRRFIP1 / RFU, NDUFAF7 / Fold change vs veh, NDUFAF7 / RFU, SLC12A2 / Fold change vs veh, SLC12A2 / RFU, IBTK / Fold change vs veh, IBTK / RFU, ESF1 / Fold change vs veh, ESF1 / Fold change vs veh, TMEM50B / RFU, TAOK1 / Fold change vs veh, TAOK1 / RFU, ACBD3 / Fold change vs veh, ACBD3 / RFU, TMA16 / Fold change vs veh, TMA16 / RFU, RWDD3 / Fold change vs veh, RWDD3 / RFU, BCAT1 / Fold change vs veh, BCAT1 / RFU, EDEM3 / Fold change vs veh, EDEM3 / RFU, TMEM33 / Fold change vs veh, TMEM33 / RFU, WDR75 / Fold change vs veh, WDR75 / RFU, AHCTF1 / Fold change vs veh, AHCTF1 / RFU, TFRC / Fold change vs veh, TFRC / RFU, ZDHHC17 / Fold change vs veh, ZDHHC17 / RFU, NOM1 / Fold change vs veh, NOM1 / RFU, ARL8B / Fold change vs veh, ARL8B / RFU, ZBTB11 / Fold change vs veh, ZBTB11 / RFU, TAMM41 / Fold change vs veh, TAMM41 / RFU, KIAA1704 /// LOC100996395 / Fold change vs veh, KIAA1704 /// LOC100996395 / RFU, ING1 / Fold change vs veh, ING1 / RFU, TRMT61B / Fold change vs veh, TRMT61B / RFU, FUBP3 / Fold change vs veh, FUBP3 / RFU, TP53 / Fold change vs veh, TP53 / RFU, TNKS2 / Fold change vs veh, TNKS2 / RFU, ZFP14 / Fold change vs veh, ZFP14 / RFU, ACTR2 / Fold change vs veh, ACTR2 / RFU, PPP3R1 / Fold change vs veh, PPP3R1 / RFU, PIK3R1 / Fold change vs veh, PIK3R1 / RFU, HNRNPA1 / Fold change vs veh, HNRNPA1 / RFU, RNF170 / Fold change vs veh, RNF170 / RFU, ZNF28 / Fold change vs veh, ZNF28 / RFU, RNGTT / Fold change vs veh, RNGTT / RFU, OGT / Fold change vs veh, OGT / RFU, BRD1 / Fold change vs veh, BRD1 / RFU, MARS / Fold change vs veh, MARS / RFU, ZNF655 / Fold change vs veh, ZNF655 / RFU, FAHD1 / Fold change vs veh, FAHD1 / RFU, BDP1 / Fold change vs veh, BDP1 / RFU, LRRCC1 / Fold change vs veh, LRRCC1 / RFU, ARID1A / Fold change vs veh, ARID1A / RFU, ZNF146 / Fold change vs veh, ZNF146 / RFU, ZNF330 / Fold change vs veh, ZNF330 / RFU, GPN3 / Fold change vs veh, GPN3 / RFU, C9orf123 / Fold change vs veh, C9orf123 / RFU, N4BP2L2 / Fold change vs veh, N4BP2L2 / RFU, ARFIP1 / Fold change vs veh, ARFIP1 / RFU, FAM179B / Fold change vs veh, FAM179B / RFU, BCL10 / Fold change vs veh, BCL10 / RFU, UHRF1BP1L / Fold change vs veh, UHRF1BP1L / RFU, BET1 / Fold change vs veh, BET1 / RFU, CNOT2 / Fold change vs veh, CNOT2 / RFU, ZNF268 / Fold change vs veh, ZNF268 / Fold change vs veh, ZNF507 / RFU, DGCR2 / Fold change vs veh, DGCR2 / RFU, WDSUB1 / Fold change vs veh, WDSUB1 / Fold change vs veh, HSP90B1 /// MIR3652 / RFU, ADSS / Fold change vs veh, ADSS / RFU, GK / Fold change vs veh, GK / RFU, ZNF148 / Fold change vs veh, ZNF148 / RFU, TAF9 / Fold change vs veh, TAF9 / RFU, SLC1A5 / Fold change vs veh, SLC1A5 / RFU, SLMO2 / Fold change vs veh, SLMO2 / RFU, ABCC4 / Fold change vs veh, ABCC4 / RFU, LOC101060439 /// RAP1B / Fold change vs veh, LOC101060439 /// RAP1B / RFU, RFX7 / Fold change vs veh, RFX7 / RFU, GTPBP10 / Fold change vs veh, GTPBP10 / RFU, CNEP1R1 / Fold change vs veh, CNEP1R1 / RFU, BIVM-ERCC5 /// ERCC5 / Fold change vs veh, BIVM-ERCC5 /// ERCC5 / RFU, ILF3 / Fold change vs veh, ILF3 / RFU 11762660_at / Fold change /veh 11762660_at / RFU VCAN (11757783_s_at) / Fold change /veh VCAN (11757783_s_at) / RFU DDX43 (11728927_at) / Fold change /veh DDX43 (11728927_at) / RFU KRT8 (11758188_x_at) / Fold change /veh KRT8 (11758188_x_at) / RFU NKD1 (11759106_at) / Fold change /veh NKD1 (11759106_at) / RFU SRD5A1 (11742802_a_at) / Fold change /veh SRD5A1 (11742802_a_at) / RFU TPSAB1 /// TPSB2 (11721975_s_at) / Fold change /veh TPSAB1 /// TPSB2 (11721975_s_at) / RFU GSTM3 (11746129_a_at) / Fold change /veh GSTM3 (11746129_a_at) / RFU IL23R (11737362_x_at) / Fold change /veh IL23R (11737362_x_at) / RFU TMEM51 (11727254_a_at) / Fold change /veh TMEM51 (11727254_a_at) / RFU PIWIL2 (11732686_x_at) / Fold change /veh PIWIL2 (11732686_x_at) / RFU ORM1 (11744905_x_at) / Fold change /veh ORM1 (11744905_x_at) / RFU CCDC152 (11743942_at) / Fold change /veh CCDC152 (11743942_at) / RFU ECM1 (11717891_a_at) / Fold change /veh ECM1 (11717891_a_at) / RFU IL23R (11748794_a_at) / Fold change /veh IL23R (11748794_a_at) / RFU TNFAIP8L3 (11732012_x_at) / Fold change /veh TNFAIP8L3 (11732012_x_at) / RFU MBOAT4 (11741988_at) / Fold change /veh MBOAT4 (11741988_at) / RFU 11764193_at / Fold change /veh 11764193_at / RFU TMEM53 (11763286_at) / Fold change /veh TMEM53 (11763286_at) / RFU MAGEB2 (11727129_at) / Fold change /veh MAGEB2 (11727129_at) / RFU TMEM200A (11744735_a_at) / Fold change /veh TMEM200A (11744735_a_at) / RFU CCDC152 (11751479_a_at) / Fold change /veh CCDC152 (11751479_a_at) / RFU FAM211A (11726209_a_at) / Fold change /veh FAM211A (11726209_a_at) / RFU RGS16 (11746705_a_at) / Fold change /veh RGS16 (11746705_a_at) / RFU VCAN (11755009_s_at) / Fold change /veh VCAN (11755009_s_at) / RFU RHOB (11743442_s_at) / Fold change /veh RHOB (11743442_s_at) / RFU RGS16 (11720943_a_at) / Fold change /veh RGS16 (11720943_a_at) / RFU RGS16 (11720944_at) / Fold change /veh RGS16 (11720944_at) / RFU, VPS4B / Fold change vs veh, VPS4B / RFU, CREB1 / Fold change vs veh, CREB1 / RFU, DNAJC13 / Fold change vs veh, DNAJC13 / RFU, GNAQ / Fold change vs veh, GNAQ / RFU, CDK5R1 / Fold change vs veh, CDK5R1 / RFU, ZRANB3 / Fold change vs veh, ZRANB3 / RFU, CUL4A / Fold change vs veh, CUL4A / RFU, CCNY / Fold change vs veh, CCNY / RFU, UFL1 / Fold change vs veh, UFL1 / RFU, COG3 / Fold change vs veh, COG3 / RFU, DIAPH2 / Fold change vs veh, DIAPH2 / RFU, SKA2 / Fold change vs veh, SKA2 / RFU, AFF3 / Fold change vs veh, AFF3 / RFU, LMF1 / Fold change vs veh, LMF1 / RFU, IPO11 / Fold change vs veh, IPO11 / RFU, DFFB / Fold change vs veh, DFFB / RFU, FOXP1 / Fold change vs veh, FOXP1 / RFU, CARD8 / Fold change vs veh, CARD8 / RFU, STRN3 / Fold change vs veh, STRN3 / RFU, ADK / Fold change vs veh, ADK / RFU, RASSF2 / Fold change vs veh, RASSF2 / RFU, WIPF1 / Fold change vs veh, WIPF1 / RFU, LARP1B / Fold change vs veh, LARP1B / RFU, RASA1 / Fold change vs veh, RASA1 / RFU, RB1 / Fold change vs veh, RB1 / RFU, PPFIA1 / Fold change vs veh, PPFIA1 / RFU, MAT2A / Fold change vs veh, MAT2A / RFU, CCT5 / Fold change vs veh, CCT5 / RFU, WDR92 / Fold change vs veh, WDR92 / RFU, CUX1 / Fold change vs veh, CUX1 / RFU, TTC7A / Fold change vs veh, TTC7A / RFU, TMEM135 / Fold change vs veh, TMEM135 / RFU, DEPTOR / Fold change vs veh, DEPTOR / RFU, CPM / Fold change vs veh, CPM / RFU, DNAJB6 / Fold change vs veh, DNAJB6 / RFU, CACNA2D3 / Fold change vs veh, CACNA2D3 / RFU, DTX4 / Fold change vs veh, DTX4 / RFU, TFCP2 / Fold change vs veh, TFCP2 / RFU, GMCL1 /// GMCL1P1 / Fold change vs veh, GMCL1 /// GMCL1P1 / RFU, AEBP2 / Fold change vs veh, AEBP2 / RFU, SNHG1 /// SNORD22 /// SNORD25 /// SNORD26 /// SNORD27 /// SNORD28 /// SNORD29 /// SNORD31 / Fold change vs veh, SNHG1 /// SNORD22 /// SNORD25 /// SNORD26 /// SNORD27 /// SNORD28 /// SNORD29 /// SNORD31 / Fold change (Aza/veh), C12orf56 (ProbeSet 11735607_a_at) / Fold change (ACY-1035/veh), C12orf56 (ProbeSet 11735607_a_at) / Fold change (Aza/veh), FGFR1OP (ProbeSet 11751329_s_at) / Fold change (ACY-1035/veh), FGFR1OP (ProbeSet 11751329_s_at) / Fold change (Aza/veh), VPS36 (ProbeSet 11739960_a_at) / Fold change (ACY-1035/veh), VPS36 (ProbeSet 11739960_a_at) / RFU SYPL1 (11715823_x_at) / Fold change /veh SYPL1 (11715823_x_at) / RFU IGFBP7 (11715501_s_at) / Fold change /veh IGFBP7 (11715501_s_at) / RFU REEP3 (11722064_at) / Fold change /veh REEP3 (11722064_at) / RFU IGLL1 (11728026_x_at) / Fold change /veh IGLL1 (11728026_x_at): dose or concentration left out as unconfirmed
# Settings: ProbeSet 11731093_s_at; LIST B
smiles,measurement,value
Nc1ncn([C@@H]2O[C@H](CO)[C@@H](O)[C@H]2O)c(=O)n1 [azacitidine],"Fold change vs veh, BRD1",0.85
